Paper PMC5518309 (ChemMedChem, 2014)
Peptide text beside a SMILES is read from it. * marks the point of attachment. X1 = CN(C)c1ccc2c(c1)Oc1cc(N(C)C)ccc1C21OC(=O)c2ccc(C(=O)*)cc21

Assays:
[1] = target: hY4R (Homo sapiens, UniProt P50391); test: Radioligand binding assay, displacement of [3H]-hPP
[2] = cited from earlier work
[3] = Metabolic stability in porcine liver homogenates; assay type: in vitro ADME; conditions: pig, porcine liver homogenate (supernatant)
[4] = Stability test in human blood plasma; assay type: in vitro ADME; conditions: human

Sequence of hY4R (P50391 whole entry): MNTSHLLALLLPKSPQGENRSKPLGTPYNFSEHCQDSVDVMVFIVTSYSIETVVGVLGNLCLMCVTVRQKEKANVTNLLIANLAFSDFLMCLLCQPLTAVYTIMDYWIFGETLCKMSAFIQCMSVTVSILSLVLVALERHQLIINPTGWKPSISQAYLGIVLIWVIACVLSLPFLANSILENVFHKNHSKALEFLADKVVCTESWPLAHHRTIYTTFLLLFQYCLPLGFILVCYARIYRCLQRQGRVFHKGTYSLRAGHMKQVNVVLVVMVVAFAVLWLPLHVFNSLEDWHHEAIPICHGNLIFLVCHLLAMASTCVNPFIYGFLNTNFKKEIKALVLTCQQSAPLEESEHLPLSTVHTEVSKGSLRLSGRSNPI

Row | IC50 [1] | Compound | further results
1 | 401 nM | CCCCCCCCCCCCCCCC(=O)N[C@@H](CCC(=O)NCCCC[C@H](NC(=O)[C@@H](NC(=O)[C@@H]1CCCN1C(=O)[C@H](CCC(=O)O)NC(=O)[C@H](CC(C)C)NC(=O)[C@@H]1CCCN1C(=O)[C@H](C)NC(=O)c1ccc2c(c1)C(=O)OC21c2ccc(O)cc2Oc2cc(O)ccc21)C(C)C)C(=O)N1CCC[C@H]1C(=O)NCC(=O)N[C@@H](CC(=O)O)C(=O)N[C@@H](CC(N)=O)C(=O)N[C@@H](C)C(=O)N[C@H](C(=O)N1CCC[C@H]1C(=O)N[C@@H](CCC(=O)O)C(=O)N[C@@H](CCC(N)=O)C(=O)N[C@@H](CCSC)C(=O)N[C@@H](C)C(=O)N[C@@H](CCC(N)=O)C(=O)N[C@@H](Cc1ccc(O)cc1)C(=O)N[C@@H](C)C(=O)N[C@@H](C)C(=O)N[C@@H](CC(=O)O)C(=O)N[C@@H](CC(C)C)C(=O)N[C@@H](CCCNC(=N)N)C(=O)N[C@@H](CCCNC(=N)N)C(=O)N[C@@H](Cc1ccc(O)cc1)C(=O)N[C@H](C(=O)N[C@@H](CC(N)=O)C(=O)N[C@@H](CCSC)C(=O)N[C@@H](CC(C)C)C(=O)N[C@H](C(=O)N[C@@H](CCCNC(=N)N)C(=O)N1CCC[C@H]1C(=O)N[C@@H](CCCNC(=N)N)C(=O)N[C@@H](Cc1ccc(O)cc1)C(N)=O)[C@@H](C)O)[C@@H](C)CC)[C@@H](C)O)C(=O)O [compound 3, CF-[K^7(E-Pam)]hPP] | 
2 |  | pancreatic polypeptide [PP] | half-life in the circulation [2]: less than 7 min
3 | 14.9 nM | CCCCCCCCCCCCCCCC(=O)N[C@@H](CCC(=O)NCCCC[C@H](NC(=O)[C@H](CC(N)=O)NC(=O)[C@@H](NC(=O)[C@H](Cc1ccc(O)cc1)NC(=O)[C@H](CCCNC(=N)N)NC(=O)[C@H](CCCNC(=N)N)NC(=O)[C@H](CC(C)C)NC(=O)[C@H](CC(=O)O)NC(=O)[C@H](C)NC(=O)[C@H](C)NC(=O)[C@H](Cc1ccc(O)cc1)NC(=O)[C@H](CCC(N)=O)NC(=O)[C@H](C)NC(=O)[C@H](CCSC)NC(=O)[C@H](CCC(N)=O)NC(=O)[C@H](CCC(=O)O)NC(=O)[C@@H]1CCCN1C(=O)[C@@H](NC(=O)[C@H](C)NC(=O)[C@H](CC(N)=O)NC(=O)[C@H](CC(=O)O)NC(=O)CNC(=O)[C@@H]1CCCN1C(=O)[C@H](Cc1ccc(O)cc1)NC(=O)[C@@H](NC(=O)[C@@H]1CCCN1C(=O)[C@H](CCC(=O)O)NC(=O)[C@H](CC(C)C)NC(=O)[C@@H]1CCCN1C(=O)[C@H](C)NC(=O)c1ccc2c(c1)C(=O)OC21c2ccc(O)cc2Oc2cc(O)ccc21)C(C)C)[C@@H](C)O)[C@@H](C)CC)C(=O)N[C@@H](CC(C)C)C(=O)N[C@H](C(=O)N[C@@H](CCCNC(=N)N)C(=O)N1CCC[C@H]1C(=O)N[C@@H](CCCNC(=N)N)C(=O)N[C@@H](Cc1ccc(O)cc1)C(N)=O)[C@@H](C)O)C(=O)O [compound 6, CF-[K^30(E-Pam)]hPP] | 
4 |  | CC[C@H](C)[C@H](NC(=O)[C@H](Cc1ccc(O)cc1)NC(=O)[C@H](CCCNC(=N)N)NC(=O)[C@H](CCCNC(=N)N)NC(=O)[C@H](CC(C)C)NC(=O)[C@H](CC(=O)O)NC(=O)[C@H](C)NC(=O)[C@H](C)NC(=O)[C@H](Cc1ccc(O)cc1)NC(=O)[C@H](CCC(N)=O)NC(=O)[C@H](C)NC(=O)[C@H](CCSC)NC(=O)[C@H](CCC(N)=O)NC(=O)[C@H](CCC(=O)O)NC(=O)[C@@H]1CCCN1C(=O)[C@@H](NC(=O)[C@H](C)NC(=O)[C@H](CC(N)=O)NC(=O)[C@H](CC(=O)O)NC(=O)CNC(=O)[C@@H]1CCCN1C(=O)[C@H](Cc1ccc(O)cc1)NC(=O)[C@@H](NC(=O)[C@@H]1CCCN1C(=O)[C@H](CCC(=O)O)NC(=O)[C@H](CC(C)C)NC(=O)[C@@H]1CCCN1C(=O)c1ccc2c(c1)C1(OC2=O)c2ccc(N(C)C)cc2Oc2cc(N(C)C)ccc21)C(C)C)[C@@H](C)O)C(=O)N[C@@H](CC(N)=O)C(=O)N[C@@H](CCCCN)C(=O)N[C@@H](CC(C)C)C(=O)N[C@H](C(=O)N[C@@H](CCCNC(=N)N)C(=O)N1CCC[C@H]1C(=O)N[C@@H](CCCNC(=N)N)C(=O)N[C@@H](Cc1ccc(O)cc1)C(N)=O)[C@@H](C)O [14b, TAMRA-[K^30]hPP2–36] (X1-PLEPVYPGDNATPEQMAQYAADLRRYINKLTRPRY-NH2) | half-life at 10 μM [3]: 11 ± 0.4 h; half-life at 10 μM [4]: ~100 h
5 | 8.6 nM | CCCCCCCCCCCCCCCC(=O)N[C@@H](CCC(=O)NCCCC[C@H](NC(=O)[C@H](C)NC(=O)[C@H](Cc1ccc(O)cc1)NC(=O)[C@H](CCC(N)=O)NC(=O)[C@H](C)NC(=O)[C@H](CCSC)NC(=O)[C@H](CCC(N)=O)NC(=O)[C@H](CCC(=O)O)NC(=O)[C@@H]1CCCN1C(=O)[C@@H](NC(=O)[C@H](C)NC(=O)[C@H](CC(N)=O)NC(=O)[C@H](CC(=O)O)NC(=O)CNC(=O)[C@@H]1CCCN1C(=O)[C@H](Cc1ccc(O)cc1)NC(=O)[C@@H](NC(=O)[C@@H]1CCCN1C(=O)[C@H](CCC(=O)O)NC(=O)[C@H](CC(C)C)NC(=O)[C@@H]1CCCN1C(=O)[C@H](C)NC(=O)c1ccc2c(c1)C(=O)OC21c2ccc(O)cc2Oc2cc(O)ccc21)C(C)C)[C@@H](C)O)C(=O)N[C@@H](CC(=O)O)C(=O)N[C@@H](CC(C)C)C(=O)N[C@@H](CCCNC(=N)N)C(=O)N[C@@H](CCCNC(=N)N)C(=O)N[C@@H](Cc1ccc(O)cc1)C(=O)N[C@H](C(=O)N[C@@H](CC(N)=O)C(=O)N[C@@H](CCSC)C(=O)N[C@@H](CC(C)C)C(=O)N[C@H](C(=O)N[C@@H](CCCNC(=N)N)C(=O)N1CCC[C@H]1C(=O)N[C@@H](CCCNC(=N)N)C(=O)N[C@@H](Cc1ccc(O)cc1)C(N)=O)[C@@H](C)O)[C@@H](C)CC)C(=O)O [compound 5, CF-[K^22(E-Pam)]hPP] | 
